A short description of series [1]: Nanoparticle formation, number and size on Malvern Instruments Nanosight LM10. The format is physicochemical. To be noted: 0.1 mg/ml terbinafine in 30% ethanol, with or without 0.3 mg/ml PHMB, room temperature at least 24 hours; for particle number: hydrochloride. As for the experimental part:
Terbinafine was mixed at 0.1 mg/ml in 30% ethanol and incubated at room temperature for at least 24 hours up to a maximum of 47 days. Another formulation was prepared by mixing terbinafine at 0.1 mg/ml in 30% ethanol and then adding PHMB to 0.3 mg/ml. The formulation was incubated at room temperature for at least 24 hours up to a maximum of 112 days. The number and size of any nanoparticles formed were measured using a Malvern Instruments Nanosight LM10.

Series [2] relates to Trychophyton mentagrophytes. The series can be described thus: Paper disk zone of clearance assay on YEPD agar. The series is classed as cell-based. To be noted: 4 days 30° C. How it is done:
The antifungal activity of a range of concentrations of terbinafine, encompassing the concentrations range passing through the nails in the Franz cells, was tested. Terbinafine was diluted to the following concentrations in double distilled water: 60, 6, 0.6 and 0.06 μg/ml. 40 μl of each terbinafine solution and double distilled water alone was spotted onto a 10 mm sterile 3 MM paper disk. Each disk was placed on a lawn of Trychophyton mentagrophytes plated on yeast extract peptone dextrose (YEPD) agar plates. T. mentagrophytes was used as a laboratory fungal strain due to its relevance to key pathogenic species in onychomycosis (fungal nail infection). The agar plates were inverted and incubated at 30° C. for 4 days. The plates were photographed and analysed for zones of clearance, which indicate antifungal activity.

Structures are written as SMILES. “Also recorded” adds a separate entry of the source. Counter-ions that a name gives are not always drawn.

For the compound `CN(C/C=C/C#CC(C)(C)C)Cc1cccc2ccccc12` [terbinafine, terbinafine hydrochloride], in series [1], the particle size range is listed as 50-800 nm. For the same compound, the particle number in series [1] is recorded as 0.5×10^8 particles/ml; in series [1] (listed as terbinafine alone), “Approximately 0.5×10^8 particles/ml”. For the same compound, the zone of clearance result in series [2] (40 μl of 0.06 μg/ml solution on 10 mm disk) is listed as “no zone of clearance”; in series [2] (40 μl of 0.6 μg/ml solution on 10 mm disk, hydrochloride), “clear zones of clearance; also recorded: Progressively smaller zones of clearance”; in series [2] (40 μl of 6 μg/ml solution on 10 mm disk, hydrochloride), “clear zones of clearance; also recorded: Progressively smaller zones of clearance”; in series [2] (40 μl of 60 μg/ml solution on 10 mm disk, hydrochloride) it was “clear zones of clearance; also recorded: largest zone of clearance”.

Values taken from patent US10517835B2, “Composition and methods of treatment” (Blueberry Therapeutics Limited, priority 2015, dated 2019).
